Tests used:
NB cells = tested on: NB cells; design: method as in PMID 28326012; conditions: cited from earlier work; for proliferation, migration, invasion, and sphere formation of NB cells: AR antagonists, hormone-free medium
10A cells = assay: MTT cell viability assay, 10A; format: cell-based; conditions: Homo sapiens, normal cell line, 72 h
Method: (§1) Statins dissolved in DMSO and AA dissolved in ethanol. After 72 h treatment, the medium was added 0.5 mg/ml MTT reagent and incubated at 37°C for 4 h. Subsequently, the supernatant was aspirated, and cells were lysed in 150 µl DMSO, then shaken 10 min at 37°C. The optical density (OD) was measured at 570 and 630 nm using a plate reader.

HUVEC cells = assay: MTT cell viability assay, HUVEC; format: cell-based; conditions: Homo sapiens, normal cell line, 72 h
Method: as §1

SK-N-BE (2) cells = assay: MTT cell viability assay, SK-N-BE (2); format: cell-based; conditions: Homo sapiens, SKNBE2, NB cell line, 72 h
Method: (§2) N2a, SH-SY5Y, SK-N-BE (2), 10A, HUVEC, HL7702 cells were plated in 96-well plates at 8,000 cells/well, respectively, in complete media in triplicate wells for each dose and cultured for 18 h. The neuroblastoma cell lines, N2a, SH-SY5Y, and SK-N-BE (2), and non-cancer cell lines, 10A, HUVEC, and HL7702, were treated with simvastatin and fluvastatin in a range of doses from 0 to 20 μM and with AA from 0 to 30 μM; N2a, SH-SY5Y SK-N-BE (2), were treated with rosuvastatin in a range of doses from 0 to 100 μM for 72 h. Statins dissolved in DMSO and AA dissolved in ethanol. After 72 h treatment, the medium was added 0.5 mg/ml MTT reagent and incubated at 37°C for 4 h. Subsequently, the supernatant was aspirated, and cells were lysed in 150 µl DMSO, then shaken 10 min at 37°C. The optical density (OD) was measured at 570 and 630 nm using a plate reader.

HL7702 cells = assay: MTT cell viability assay, HL7702; format: cell-based; conditions: Homo sapiens, L02, normal cell line, 72 h
Method: as §1

SH-SY5Y cells = assay: MTT cell viability assay, SH-SY5Y; format: cell-based; conditions: Homo sapiens, NB cell line, 72 h
Method: as §2

N2a cells = assay: MTT cell viability assay, N2a; format: cell-based, mouse; conditions: for IC50: Mus musculus, N2a, NB cell line, MTT, 72 h
Method: as §2

22RV1 cells = tested on: 22RV1 cells; design: key to Results (abiraterone acetate alone): Positive: Abiraterone acetate alone inhibited the progression of cancer; Negative: Abiraterone acetate could not inhibit the progression of cancer; conditions: Prostate Cancer, 200.0 mg/kg, oral; ref Supplement [29]; cited from earlier work
SH-SY5Y xenografts = assay: SH-SY5Y tumor xenograft study; format: in vivo, BALB/c nude mice; conditions: AA 150 mg/kg, oral daily
Excerpt: Four weeks old BALB/c nude mice of both sexes were purchased from Vital River Laboratory Animal Technology Co., Ltd. (Beijing, China) and maintained under specific pathogen-free conditions. Male mice were castrated 5 days before cell inoculation. […] Then, all the mice were divided randomly into four groups: control group (Placebo, n = 7), simvastatin group (Sim, n = 6), abiraterone acetate group (AA, n = 6), and combination group (Com, n = 6) including three male mice in each group. […] AA 150 mg/kg/day; combined simvastatin 10 mg/kg/day with AA 75 mg/kg/day. Tumor was harvested after 10 days of dosing, then fixed half of a tumor in 4% buffered formaldehyde for IHC and the other half was stored −80°C for RT-PCR and Western Blots analysis.

LNCaP cells = tested on: LNCaP cells; design: method as in Supplement [30]; key: Positive: Abiraterone acetate alone inhibited the progression of cancer; Negative: Abiraterone acetate could not inhibit the progression of cancer; conditions: Prostate Cancer, 3.5 mg/kg/day, i.p.; ref Supplement [30]; cited from earlier work
MDA-MB-453 cells = tested on: MDA-MB-453 cells; design: method as in Supplement [31]; key: Positive: Abiraterone acetate alone inhibited the progression of cancer; Negative: Abiraterone acetate could not inhibit the progression of cancer; conditions: Breast Cancer, 285.7 mg/kg/day, oral; ref Supplement [31]; cited from earlier work
Caki2 cells = tested on: Caki2 cells; design: method as in Supplement [32]; key: Positive: Abiraterone acetate alone inhibited the progression of cancer; Negative: Abiraterone acetate could not inhibit the progression of cancer; conditions: Renal Cell Carcinoma, 195.8 mg/kg/day, i.p.; ref Supplement [32]; cited from earlier work
PC-3 cells = tested on: PC-3 cells; design: key to Results (abiraterone acetate alone): Positive: Abiraterone acetate alone inhibited the progression of cancer; Negative: Abiraterone acetate could not inhibit the progression of cancer; conditions: Prostate Cancer, 98.0 mg/kg/day, oral; ref Supplement [28]; cited from earlier work

IC50 (SK-N-BE (2) cells) [µM] | IC50 (SH-SY5Y cells) [µM] | Structure (SMILES) | proliferation, migration, invasion, and sphere formation of NB cells (NB cells) | IC50 (10A cells) [µM] | IC50 (HUVEC cells) [µM] | IC50 (HL7702 cells) [µM] | IC50 (N2a cells) [µM] | other results
– | – | C[C@]1(O)CC[C@H]2[C@@H]3CCC4=CC(=O)CCC4=C3C=C[C@@]21C [R1881] | – | – | – | – | – | growth of NB (NB cells; AR agonist, in vitro and in vivo): promoted the growth of NB in vitro and in vivo
– | – | CNC(=O)c1ccc(N2C(=S)N(c3cnc(C#N)c(C(F)(F)F)c3)C(=O)C23CCC3)cc1F [ARN509] | significantly decreased | – | – | – | – | –
8.41 | 6 | CC(C)n1c(/C=C/C(O)CC(O)CC(=O)O)c(-c2ccc(F)cc2)c2ccccc21 (stereo not shown) [Fluvastatin] | – | 13.3 | 8.96 | 29.7 | 5.09 | –
– | – | CNC(=O)c1ccc(N2C(=S)N(c3ccc(C#N)c(C(F)(F)F)c3)C(=O)C2(C)C)cc1F [MDV3100] | significantly decreased | – | – | – | – | –
9.86 | 2.72 | CC(=O)O[C@H]1CC[C@@]2(C)C(=CC[C@@H]3[C@@H]2CC[C@]2(C)C(c4cccnc4)=CC[C@@H]32)C1 [Abiraterone acetate] | – | 5.2 | 22.6 | 5.31 | 4.32 | Results (abiraterone acetate alone) (22RV1 cells): Negative; tumor growth (SH-SY5Y xenografts): tumor growth delay; Results (abiraterone acetate alone) (LNCaP cells): Positive; inhibition rate (N2a cells; N2a cells, 2.5 μM AA): ~20%; Results (abiraterone acetate alone) (MDA-MB-453 cells): Negative; Results (abiraterone acetate alone) (Caki2 cells): Positive; Results (abiraterone acetate alone) (PC-3 cells): Positive
67.6 | > 100 | CC(C)c1nc(N(C)S(C)(=O)=O)nc(-c2ccc(F)cc2)c1/C=C/[C@@H](O)C[C@@H](O)CC(=O)O [Rosuvastatin] | – | – | – | – | 68.4 | –

From publication PMC8141582, “Synergistic Effect of Statins and Abiraterone Acetate on the Growth Inhibition of Neuroblastoma via Targeting Androgen Receptor” (Frontiers in Oncology, 2021)
